Measured values from US20040137436A1, “Method for measuring drug resistance” (priority 2000, published 2004).
Where two headings read alike, the source gives them in different places.

System: HIV-1
Format: cell-based
Conditions: for Geometric Mean Phenotype: fold change in IC50 vs wild type; for Average Phenotype (log): log fold resistance
[1] = RT codon 41 ANY, 184 ANY, 215 ANY
[2] = RT codon 41 WT, 184 V/I, 215 F/Y
[3] = RT codon 41 WT, 184 V/I, 215 WT
[4] = RT codon 41 WT, 184 WT, 215 F/Y

## Cc1cn([C@H]2C[C@H](N=[N+]=[N-])[C@@H](CO)O2)c(=O)[nH]c1=O [AZT, zidovudine]
184V together with AZT resistance mutations, each cluster (FIG. 7)
  effect of inclusion of the 184V mutation on magnitude of AZT resistance: substantial reduction
[1]
  Geometric Mean Phenotype: 3.9 fold
  Average Phenotype (log): 0.59
RT codon 41 L, 184 WT, 215 F/Y
  Geometric Mean Phenotype: 27.7 fold
  Average Phenotype (log): 1.44
RT codon 41 L, 184 WT, 215 WT
  Geometric Mean Phenotype: 1.7 fold
  Average Phenotype (log): 0.24
[2]
  Geometric Mean Phenotype: 6.2 fold
  Average Phenotype (log): 0.79
[3]
  Geometric Mean Phenotype: 1.3 fold
  Average Phenotype (log): 0.10
[4]
  Geometric Mean Phenotype: 13.4 fold
  Average Phenotype (log): 1.13
RT codon 41 WT, 184 WT, 215 WT
  Geometric Mean Phenotype: 1.3 fold
  Average Phenotype (log): 0.12
Genetic clusters with multiple mutations conferring AZT resistance (FIG. 7)
  mean fold resistance, increase: ~100 fold
Virus harbouring the 184V mutation (FIG. 7)
  susceptibility profile of genetic cluster: slightly reduced level of susceptibility
